Assay results reported in the NIST ThermoML archive (doi:10.1021/je200279q).
Numbers after ± are expanded uncertainties.

How the values were obtained:
[1] = 298.15 K; 101.33 kPa; Liquid; Pycnometric method
[2] = refractive index (Na D-line) (dimensionless); details: 298.15 K; 101.33 kPa; Liquid; Standard Abbe refractometry

Row | SMILES | mass density [1] [kg/m3] | refractive index [2]
1 | CC(C)CC(C)(C)C [2,2,4-trimethylpentane] | 687.5 ± 0.7 | 1.3892 ± 0.0008
2 | CCCCO [butan-1-ol] | 805.8 ± 0.7 | 1.3973 ± 0.0007
3 | CCCO [propan-1-ol] | 799.5 ± 0.7 | 1.3833 ± 0.0007
